The values below come from patent US11542254B2, “Methods and composition of 4-substituted benzoylpiperazine-1-substituted carbonyls as beta-catenin/B-cell lymphoma 9 inhibitors” (University of Utah Research Foundation, priority 2016, dated 2023).

The structures appear in SMILES notation. Structures can show the parent of a compound that is named as a salt.

What is called Ki is a measure of affinity in units of concentration, obtained from inhibition or displacement. Lower therefore signals higher affinity.

β-catenin/BCL9 PPI, sequence (P35222 138-686): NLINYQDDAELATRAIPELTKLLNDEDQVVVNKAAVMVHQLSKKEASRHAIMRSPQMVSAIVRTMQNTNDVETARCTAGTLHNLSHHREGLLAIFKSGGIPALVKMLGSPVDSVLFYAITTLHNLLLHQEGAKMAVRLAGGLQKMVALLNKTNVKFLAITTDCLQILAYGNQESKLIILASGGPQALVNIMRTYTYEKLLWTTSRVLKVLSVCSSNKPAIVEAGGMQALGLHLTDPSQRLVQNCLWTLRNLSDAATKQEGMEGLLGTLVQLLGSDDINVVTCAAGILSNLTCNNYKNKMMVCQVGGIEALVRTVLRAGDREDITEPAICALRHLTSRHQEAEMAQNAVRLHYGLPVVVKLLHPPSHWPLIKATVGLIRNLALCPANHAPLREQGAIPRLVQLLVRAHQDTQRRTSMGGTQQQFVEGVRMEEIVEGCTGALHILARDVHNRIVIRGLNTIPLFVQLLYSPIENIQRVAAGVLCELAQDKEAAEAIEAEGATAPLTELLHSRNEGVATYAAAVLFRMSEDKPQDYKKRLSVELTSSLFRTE

The target of one test is β-catenin/BCL9 PPI (Homo sapiens (Human), UniProt P35222). Briefly: AlphaScreen competitive inhibition assay, wild-type β-catenin/BCL9 PPI. Particulars: 500 μM, AlphaScreen. In kind it is binding. Here is the method:
Cells were cultured in LB medium with 30 μg/mL kanamycin until the OD600 was approximately 0.8, and then protein expression was induced with 400 μM of IPTG at 20° C. overnight. Cells were lysed by sonication. […] Native non-denaturing gel electrophoresis was performed to confirm the homogeneity of the purified proteins. Thermal-shift assay was performed on an iCycler iQ Real Time Detection System (Bio-Rad) to monitor protein stability and detect protein aggregation. Protein unfolding was evaluated through measuring the fluorescence changes of fluorescent dye Sypro Orange when interacting with wild-type or mutant β-catenin proteins. A temperature increment of 1°/min was applied. […] All spectra were recorded at room temperature, and the baseline control containing all of the substances except protein. Sample were prepared at a concentration around 1-5 μM in a buffer of 10 mM potassium phosphate and 100 mM potassium fluoride at pH 7.0 to ensure that the transmission of light through the sample was not restricted. […] Proteins were aliquoted and stored at −80° C.
25. Alphascreen Competitive Inhibition Assays Using Wild-Type and Mutant β-Catenin Proteins
(In general: In Alpha technology, singlet oxygen from a donor bead excites a nearby acceptor bead.)
`Cl.Cl.NCCc1cc(F)cc(C(=O)N2CCN(C(=O)c3cnc(O[C@H]4CCNC4)c(-c4ccc(F)cc4)c3)CC2)c1` [Compound 4, (S)-(4-(3-(2-Aminoethyl)-5-fluorobenzoyl)piperazin-1-yl)(5-(4-fluorophenyl)-6-(pyrrolidin-3-yloxy)pyridin-3-yl)methanone hydrochloride]: the “inhibition of β-catenin/BCL9 PPI at the highest concentration tested” value was “no obvious inhibition”.

The test is the same for the next values; noted with them: wild-type β-catenin/BCL9 PPI, AlphaScreen competitive inhibition, mean ± SD (n=3).
Compound `O=C(c1cc(F)cc(N2CCNCC2=O)c1)N1CCN(C(=O)c2ccc(O[C@H]3CCNC3)c(C3CCCCC3)c2)CC1` [Compound 75, (S)-1-(3-(4-(3-Cyclohexyl-4-(pyrrolidin-3-yloxy)benzoyl)piperazine-1-carbonyl)-5-fluorophenyl)piperazin-2-one hydrochloride] displayed a Ki of 39 ± 7 µM. The compound `O=C(c1cc(F)cc(O[C@@H]2CCNC2)c1)N1CCN(C(=O)c2ccc(O[C@H]3CCNC3)c(-c3ccc(F)cc3)c2)CC1` [Compound 7, (4-(3-Fluoro-5-(((R)-pyrrolidin-3-yl)oxy)benzoyl)piperazin-1-yl) (4′-fluoro-6-(((S)-pyrrolidin-3-yl)oxy)-[1,1′-biphenyl]-3-yl) methanone hydrochloride] gave a Ki of 35 ± 9.6 µM.

`CC(C)C[C@H]1CN(C(=O)c2cc(F)cc(N3CCNCC3)c2)CCN1C(=O)c1ccc(O[C@H]2CCNC2)c(-c2ccc(F)cc2)c1` [Compound 68, 4-(3-Fluoro-5-((5)-4-(4′-fluoro-6-(((S)-pyrrolidin-1-ium-3-yl)oxy)-[1,1′-biphenyl]-3-carbonyl)-3-isobutylpiperazine-1-carbonyl)phenyl)piperazin-1-ium chloride]: the Ki was 22 µM. This Ki lies about 1.6-fold lower than the previous one.

Turning to `O=C(c1cc(Br)cc(N2CCNCC2)c1)N1CCN(C(=O)c2ccc(O[C@H]3CCNC3)c(C3CCCCC3)c2)CC1` [Compound 21, (S)-(4-(3-Bromo-5-(piperazin-1-yl)benzoyl)piperazin-1-yl)(3-cyclohexyl-4-(pyrrolidin-3-yloxy)phenyl)methanone hydrochloride], the Ki worked out at 55 ± 2.7 µM. Consider `CC[C@H]1CN(C(=O)c2cc(F)cc(N3CCNCC3)c2)CCN1C(=O)c1ccc(O[C@H]2CCNC2)c(-c2ccc(F)cc2)c1` [Compound 63, 4-(3-((S)-3-Ethyl-4-(4′-fluoro-6-(((S)-pyrrolidin-1-ium-3-yl)oxy)-[1,1′-biphenyl]-3-carbonyl)piperazine-1-carbonyl)-5-fluorophenyl)piperazin-1-ium chloride], for which the Ki is 10 ± 10 µM. `O=C(c1cc(F)cc(N2CCNCC2=O)c1)N1CCN(C(=O)c2ccc(O[C@H]3CCNC3)c(C3CCC(C(F)(F)F)CC3)c2)CC1` (stereo partly drawn) [Compound 76, (S)-1-(3-Fluoro-5-(4-(4-(pyrrolidin-3-yloxy)-3-(4-(trifluoromethyl)cyclohexyl)benzoyl)piperazine-1-carbonyl)phenyl)piperazin-2-one hydrochloride] had a Ki of 14 ± 3.6 µM. Same read-out and setting: in the case of `Cl.Cl.NCCc1cc(F)cc(C(=O)N2CCN(C(=O)c3cnc(O[C@H]4CCNC4)c(-c4ccc(F)cc4)c3)CC2)c1` [Compound 4, (S)-(4-(3-(2-Aminoethyl)-5-fluorobenzoyl)piperazin-1-yl)(5-(4-fluorophenyl)-6-(pyrrolidin-3-yloxy)pyridin-3-yl)methanone hydrochloride] it was more than 500 µM; in that of `O=C(c1cc(Cl)cc(N2CCNCC2)c1)N1CCN(C(=O)c2ccc(O[C@H]3CCNC3)c(C3CCCCC3)c2)CC1` [Compound 18, (S)-(4-(3-Chloro-5-(piperazin-l-yl)benzoyl)piperazin-1-yl)(3-cyclohexyl-4-(pyrrolidin-3-yloxy)phenyl)methanone hydrochloride], 76 ± 9.9 µM.

`Cl.Cl.O=C(c1cc(F)cc(N2CCNCC2)c1)N1CCN(C(=O)c2cnc(O[C@H]3CCNC3)c(-c3ccc(F)cc3)c2)CC1` [Compound 3, (S)-(4-(3-Fluoro-5-(piperazin-1-yl)benzoyl)piperazin-1-yl)(5-(4-fluorophenyl)-6-(pyrrolidin-3-yloxy)pyridin-3-yl)methanone hydrochloride] displayed a Ki of 82 ± 12 µM.

Turning to `O=C(c1cc(N2CCNCC2)cc(C(F)(F)F)c1)N1CCN(C(=O)c2ccc(O[C@H]3CCNC3)c(C3CCCCC3)c2)CC1` [Compound 20, (S)-(4-(3-Cyclohexyl-4-(pyrrolidin-3-yloxy)benzoyl)piperazin-1-yl) (3-(piperazin-1-yl)-5-(trifluoromethyl)phenyl) methanone hydrochloride], the affinity corresponds to a Ki of 69 ± 8.7 µM. For `Cl.Cl.O=C(c1cc(F)cc(N2CCNCC2)c1)N1CCN(C(=O)c2ccc(O[C@H]3CCNC3)c(-c3ccc(F)c(F)c3)c2)CC1` [Compound 9, (S)-(4-(3′,4′-Difluoro-6-(pyrrolidin-3-yloxy)-[1,1′-biphenyl]-3-carbonyl)piperazin-1-yl)(3-fluoro-5-(piperazin-1-yl)phenyl) methanone hydrochloride], the Ki is 57 ± 33 µM. As for `O=C(c1cc(F)cc(N2CCNCC2)c1)N1CCN(C(=O)c2ccc(O[C@H]3CCNC3)c(C3CCC(C(F)(F)F)CC3)c2)CC1` (stereo partly drawn) [Compound 13, (S)-(4-(3-Fluoro-5-(piperazin-1-yl)benzoyl)piperazin-1-yl)(4-(pyrrolidin-3-yloxy)-3-(4-(trifluoromethyl)cyclohexyl)phenyl)methanone hydrochloride], the Ki was determined as 170 ± 7.5 µM. The compound `C[C@H]1CN(C(=O)c2cc(F)cc(N3CCNCC3)c2)CCN1C(=O)c1ccc(O[C@H]2CCNC2)c(-c2ccc(F)cc2)c1` [Compound 62, 4-(3-Fluoro-5-((S)-4-(4′-fluoro-6-(((S)-pyrrolidin-1-ium-3-yl)oxy)-[1,1′-biphenyl]-3-carbonyl)-3-methylpiperazine-1-carbonyl)phenyl)piperazin-1-ium chloride] gave a Ki of 110 ± 50 µM.

With `Cc1cc(C(=O)N2CCN(C(=O)c3ccc(O[C@H]4CCNC4)c(C4CCCCC4)c3)CC2)cc(N2CCNCC2)c1` [Compound 19, (S)-(4-(3-Cyclohexyl-4-(pyrrolidin-3-yloxy)benzoyl)piperazin-1-yl) (3-methyl-5-(piperazin-1-yl)phenyl)methanone hydrochloride], the Ki came out at 25 ± 1.7 µM. On the same count and under the same terms, under `CC(C)[C@H]1CN(C(=O)c2cc(F)cc(N3CCNCC3)c2)CCN1C(=O)c1ccc(O[C@H]2CCNC2)c(-c2ccc(F)cc2)c1` [Compound 64, 4-(3-Fluoro-5-((5)-4-(4′-fluoro-6-(((S)-pyrrolidin-1-ium-3-yl)oxy)-[1,1′-biphenyl]-3-carbonyl)-3-isopropylpiperazine-1-carbonyl)phenyl)piperazin-1-ium chloride] stands 45 µM; under `O=C(c1cc(F)cc(C2CCNCC2)c1)N1CCN(C(=O)c2ccc(O[C@H]3CCNC3)c(-c3ccc(F)cc3)c2)CC1` [Compound 8, (S)-(4-(3-Fluoro-5-(piperidin-4-yl)benzoyl)piperazin-1-yl)(4′-fluoro-6-(pyrrolidin-3-yloxy)-[1,1′-biphenyl]-3-yl)methanone hydrochloride], 20 ± 2.3 µM. The compound `Cc1cc(C(=O)N2CCN(C(=O)c3cc(F)cc(N4CCNCC4)c3)CC2)ccc1O[C@H]1CCNC1` [Compound 17, (S)-(4-(3-Fluoro-5-(piperazin-1-yl)benzoyl)piperazin-1-yl)(3-methyl-4-(pyrrolidin-3-yloxy)phenyl) methanone hydrochloride] yielded a Ki of 490 ± 150 µM. As to `O=C(c1cc(F)cc(N2CCNCC2)c1)N1CCN(C(=O)c2ccc(O[C@H]3CCNC3)c(C3CCCC3)c2)CC1` [Compound 11, (S)-(4-(3-Cyclopentyl-4-(pyrrolidin-3-yloxy)benzoyl)piperazin-1-yl)(3-fluoro-5-(piperazin-1-yl)phenyl)methanone hydrochloride], affinity was put at a Ki of 37 ± 8 µM.

The same test, now with this note: wild-type β-catenin/BCL9 PPI, compared with compound 2.
Regarding `Cl.Cl.O=C(c1cc(F)cc(N2CCNCC2)c1)N1CCN(C(=O)c2cnc(O[C@H]3CCNC3)c(-c3ccc(F)cc3)c2)CC1` [Compound 3, (S)-(4-(3-Fluoro-5-(piperazin-1-yl)benzoyl)piperazin-1-yl)(5-(4-fluorophenyl)-6-(pyrrolidin-3-yloxy)pyridin-3-yl)methanone hydrochloride], the “AlphaScreen Ki relative to compound 2 (higher / worse)” value is 4 fold. `Cl.Cl.O=C(c1cc(F)cc(N2CCNCC2)c1)N1CCN(C(=O)c2ccc(O[C@H]3CCNC3)c(-c3ccc(F)c(F)c3)c2)CC1` [Compound 9, (S)-(4-(3′,4′-Difluoro-6-(pyrrolidin-3-yloxy)-[1,1′-biphenyl]-3-carbonyl)piperazin-1-yl)(3-fluoro-5-(piperazin-1-yl)phenyl) methanone hydrochloride]: the “AlphaScreen Ki relative to compound 2 (higher / worse)” value was “approximately 3 fold”.
